Data published in US12648946B2, “Combination of antibody-pyrrolobenzodiazepine derivative conjugate and PARP inhibitor” (DAIICHI SANKYO COMPANY, LIMITED, priority 2019, dated 2026).
Where two headings read alike, the source gives them in different places.

How the values were obtained:
[1] = system: human pharyngeal cancer cell line FaDu; experiment: Cell growth inhibition test (2); format: cell-based; settings: 144 h
Method: The human pharyngeal cancer cell line FaDu obtained from ATCC (American Type Culture Collection) was used for evaluation. Cells were prepared with MEM containing 10% fetal bovine serum (GE Healthcare), MEM Non-Essential Amino Acids Solution (Thermo Fisher Scientific), and Sodium Pyruvate (Thermo Fisher Scientific) (Thermo Fisher Scientific; hereinafter, referred to as EMEM medium) to reach 6.25×10^3 cells/mL, and 80 μL portions of them were added into a 96-well cell culture microplate. After addition of the cells, the cells were cultured at 37° C. and 5% CO2 overnight.
On the next day, 10 μL portions of pyrrolobenzodiazepine derivative A, B, or C diluted with EMEM medium to 100 pM, 50 pM, 25 pM, 12.5 pM, 6.25 pM, 3.13 pM, 1.56 pM, or 0.78 pM were added to the microplate. To each well without any pyrrolobenzodiazepine derivative, 10 μL of EMEM medium was added. Further, 10 μL portions of olaparib prepared with EMEM medium to reach 1 μM were added to the microplate. To each well without olaparib, 10 μL of EMEM medium was added. Thereafter, the microplate was cultured at 37° C. and 5% CO2 for 6 days. After culturing, the microplate was taken out of the incubator, and left to stand at room temperature for 30 minutes. CellTiter-Glo Luminescent Cell Viability Assay (Promega Corporation) in an amount equivalent to that of the culture solution was added, and stirred using a plate mixer. The microplate was left to stand at room temperature for 10 minutes, and thereafter the amount of emission was measured by using a plate reader (PerkinElmer).
Cell survival rates in wells with derivative A, B, or […] were calculated by using the following formula.
[formula] • a: Mean value of amounts of emission from wells with derivative A, B, or C • b: Mean value of amounts of emission from wells with medium • IC50 values were calculated by using the following formula.
(§1) [formula] • a: Concentration of derivative A, B, or C, a • b: Concentration of derivative A, B, or C, b • c: Cell survival rate when derivative A, B, or C of concentration a was added • d: Cell survival rate when derivative A, B, or C of concentration b was added • a and b satisfy a>b at points sandwiching a cell survival rate of 50%.
Cell survival rates in wells with derivative A, B, or C added together with 1 μM olaparib were calculated by using the following formula.
[formula] • a: Mean value of amounts of emission from wells with derivative A, B, or C added together with 1 μM olaparib • b: Mean value of amounts of emission from wells with 1 μM olaparib • IC50 values were calculated by using the following formula.
as §1, with “and 1 μM olaparib were” for “was”

[2] = system: human pharyngeal cancer cell line FaDu; experiment: Antitumor test (3), subcutaneous xenograft; format: in vivo, mouse; settings: single administration
Method: (§2) Mouse: Five- to six-week-old female BALB/c nude mice (Charles River Laboratories Japan, Inc.) were subjected to experiment. Assay and calculation formula: In all of the studies, the major axis and minor axis of a tumor were measured twice a week by using an electronic digital caliper ([…] Corp.), and the tumor volume (mm^3) was calculated. The calculation formula is as shown below. [formula] Each of the anti-CLDN6 antibody-drug conjugate ADC1, the anti-HER2 antibody-drug conjugate ADC2, and the anti-TROP2 antibody-drug conjugate ADC3 was diluted with ABS buffer (10 mM acetate buffer (pH 5.5), 5% sorbitol), and a liquid volume of 10 mL/kg was intravenously administered into the tail vein. […] LLC)/Dulbecco's Phosphate-Buffered Saline, and then a liquid volume of 10 mL/kg was intraperitoneally administered. […] LLC)/Dulbecco's Phosphate-Buffered Saline, and then a liquid volume of 10 mL/kg was orally administered. Niraparib was dissolved in DMSO, diluted with 0.5% methylcellulose, and then a liquid volume of 10 mL/kg was orally administered. The described method is common to Examples 34 to 37. […]

[3] = system: human breast cancer cell line JIMT-1; experiment: Antitumor test (2), subcutaneous xenograft; format: in vivo, mouse; settings: single administration
Method: as §2

COc1ccc(C2=CN3C(=O)c4cc(OC)c(OCCCCCOc5cc6c(cc5OC)C(=O)N5CC7(CC7)C[C@H]5C=N6)cc4NC[C@@H]3C2)cc1 [derivative A, (11a′S)-7′-Methoxy-8′-[(5-{[(11aS)-7-methoxy-2-(4-methoxyphenyl)-5-oxo-5,10,11,11a-tetrahydro-1H-pyrrolo[2,1-c][1,4]benzodiazepin-8-yl]oxy}pentyl)oxy]-1′,11a′-dihydro-5′H-spiro[cyclopropane-1,2′-pyrrolo[2,1-c][1,4]benzodiazepine]-5′-one]
IC50 ([1]; read-out: IC50, growth-suppressing effect, added singly, FaDu, 6 days (test 2)): 8.6 pM
IC50 ([1]; read-out: IC50, growth-suppressing effect, added together with 1 μM olaparib, FaDu, 6 days): 4.4 pM

Cn1ncnc1[C@H]1c2n[nH]c(=O)c3cc(F)cc(c23)N[C@@H]1c1ccc(F)cc1 [talazoparib]
tumor growth inhibition (TGI) ([2]; talazoparib 0.8 mg/kg oral for 5 days from Day 0, Day 25, FaDu): 33%
tumor growth-suppressing effect ([3]; talazoparib 0.8 mg/kg oral for 5 days from Day 0, JIMT-1): No tumor growth-suppressing effect

O=C(c1cc(Cc2n[nH]c(=O)c3ccccc23)ccc1F)N1CCN(C(=O)C2CC2)CC1 [olaparib, reference compound]
inhibition at 1 µM ([1]; 1 μM olaparib alone, 6 days): < 10%
tumor growth inhibition (TGI) ([2]; olaparib 50 mg/kg i.p. for 5 days from Day 0, Day 25, FaDu): 7%
tumor growth-suppressing effect ([3]; olaparib 50 mg/kg i.p. for 5 days from Day 0, JIMT-1): No tumor growth-suppressing effect
